Laboratory results taken from patent US11912723B2, “KRAS modulators and uses thereof” (Quanta Therapeutics, Inc., priority 2022, dated 2024).

Experiments:
[1] = tested on: AGS (KRAS G12D) cells, phospho-ERK; assay: pERK In Cell Western (ICW) assay (Method B); type: cell-based; settings: Homo sapiens, 3 hours
Method: pERK ICW is a high throughput screening assay to evaluate the cellular potency of mutant KRAS small molecule inhibitors. KRAS mutant cell line AGS (KRAS^G12D) were purchased from ATCC and maintained in DMEM and RPMI medium supplemented with 10% fetal bovine serum and Penicillin/Streptomycin.
Cells grown in exponential phase were trypsinized, resuspended in fresh media, and viable cells were counted using a cell counter with Trypan Blue (BioRad TC20). Cells were seeded into 384-well plate (Greiner 781091) at density of 5,000 cells/well for AGS and allowed to grow overnight in a 37° C. CO2 incubator. The next day, compounds were dispensed into wells with a ½ log, 10-point serial dilution and top concentration of 10 μM using Tecan D300e dispenser and incubated for 3 hours in a 37° C. CO2 incubator. Cells were then fixed with paraformaldehyde (Electron Microscopy Sciences, 15710, 4% final concentration) for 30 min, permeabilized with wash buffer (1×PBS+0.1% Triton X-100) for 30 min and blocked with Odyssey blocking buffer (Li—COR 927-70001) for 1 hour, all at room temperature (RT). Phospho-ERK antibody (CST 4370L) was diluted 1:500 in Odyssey blocking+0.2% Tween 20 and incubated with cells overnight at 4° C. The next day, plates were washed 5× with wash buffer, incubated with IRDye 800 CW, Goat anti-Rabbit secondary antibody (Li—COR 926-32211, 1:500) and DRAQ5 (CST 4084L, 1:5,000) diluted in Odyssey blocking+0.2% Tween 20 for 1 hour, washed 5×, and imaged on an Odyssey CLx imaging system.
For data analysis, signal intensities from 800 (phosphor-ERK) and 700 (DRAQ5) channels were extracted, and phospho-ERK signals were normalized to DRAQ5 signals for each well and percent of DMSO control values were computed. Data were then imported into Graphpad Prism to compute half-maximal inhibitory concentrations (IC50) using a 4-parameter variable slope model. Z-factor for each plate was computed from signals derived from wells treated with either DMSO or 5 μM of Trametinib. AGS pERK ICW (Method B) IC50 (uM) values of selected compounds are depicted in Table 2 with compounds having a value 0.001 uM to 0.01 uM as ++++; >0.01 uM to 0.1 uM as +++; >0.1 uM to 1 uM as ++; 1 uM to 10 uM as + and >10 uM as NA.

[2] = target: T1, GST-tagged KRAS G12D (2-169) (Homo sapiens, UniProt P01116, G12D); assay: Nucleotide exchange assay (NEA), HTRF of SOS-mediated GTP-DY-647P1 binding; type: biochemical; settings: 5 nM GST-KRAS G12D, 20 nM SOScat, 150 nM GTP; compound 1 h at RT
T1 construct: GST-tagged KRAS^G12D (2-169, Reaction Biology, MSC-11-539); purchased Reaction Biology MSC-11-539 (KRAS G12D); MSC-11-502 (SOS1cat)
Procedure, shortened: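 After 1 h RT preincubation of compound with KRAS, SOS1cat (20 nM final) and fluorescent GTP analog (150 nM) were added to 5 nM KRAS; HTRF (anti-GST Tb donor) followed at RT for up to 90 min. % inhibition relative to DMSO and no-SOS1 blank, 4-parameter curve fit.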

[3] = target: T2, KRAS G12D/RAF1 (Homo sapiens, UniProt P01116, G12D); assay: Protein-protein interaction (PPI) HTRF assay KRAS G12D/RAF1; type: binding; settings: KRAS G12D/RAF1, GppNHp-loaded KRAS; 30 minutes pre-incubation
T2 construct: KRAS (1-169) proteins were expressed in E. coli at 18° C; His6-MBP (N, cleaved yes); made in house; host or cells: E. coli
Procedure, shortened: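 IC50 values come from the 665/615 HTRF ratio, scaled between no-compound (0% inhibition) and untagged RAF1 (100%). GppNHp-exchanged, biotinylated RAS (1-169) solution at 16 nM met compound for 30 min at room temperature. Then 16 nM His-tagged RAF1 (52-131) donor solution was added and incubated 1 h.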

Oc1ccc(Cl)c2c1C1(CC2)Cc2nc(OC[C@@]34CCCN3C[C@H](F)C4)nc(N3CCCCCC3)c2CO1 (mixture of isomers) [Compound 9, 4-(azepan-1-yl)-7′-chloro-2-[[rac-(2R,8S)-2-fluoro-1,2,3,5,6,7-hexahydropyrrolizin-8-yl]methoxy]spiro[5,8-dihydropyrano[4,3-d]pyrimidine-7,3′-indane]-4′-ol]
IC50 [1]: 1 to 10 µM | IC50 [2]: 1 to 20 µM

CN(C)C(=O)c1cc2n(n1)CCCN(c1nc(OC[C@@]34CCCN3C[C@H](F)C4)nc3c1COC1(CCc4ccc(OC(F)F)cc41)C3)C2 (mixture of isomers) [Compound 41, 5-[6′-(difluoromethoxy)-2-[[rac-(2R,8S)-2-fluoro-1,2,3,5,6,7-hexahydropyrrolizin-8-yl]methoxy]spiro[5,8-dihydropyrano[4,3-d]pyrimidine-7,1′-indane]-4-yl]-N,N-dimethyl-4,6,7,8-tetrahydropyrazolo[1,5-a][1,4]diazepine-2-carboxamide]
IC50 [1]: > 10 µM | IC50 [2]: 1 to 20 µM

CN(C)C(=O)c1cc2n(n1)CCCN(c1nc(OC[C@@]34CCCN3C[C@H](F)C4)nc3c1COC1(CCc4c(OC(F)F)cccc41)C3)C2 (mixture of isomers) [Compound 48, 5-[4′-(difluoromethoxy)-2-[[rac-(2R,8S)-2-fluoro-1,2,3,5,6,7-hexahydropyrrolizin-8-yl]methoxy]spiro[5,8-dihydropyrano[4,3-d]pyrimidine-7,1′-indane]-4-yl]-N,N-dimethyl-4,6,7,8-tetrahydropyrazolo[1,5-a][1,4]diazepine-2-carboxamide]
IC50 [1]: > 10 µM | IC50 [2]: 1 to 20 µM

CN1Cc2c(nc(OCC34CCCN3CC(F)C4)nc2N2CC3CCC(C2)C3NC#N)CC12CCCc1ccccc12 [Compound 86, [(1R,5S)-3-[(7S)-2-[[(2R,8S)-2-fluoro-1,2,3,5,6,7-hexahydropyrrolizin-8-yl]methoxy]-6-methyl-spiro[5,8-dihydropyrido[4,3-d]pyrimidine-7,1′-tetralin]-4-yl]-3-azabicyclo[3.2.1]octan-8-yl]cyanamide]
IC50 [3]: > 100 µM | IC50 [2]: < 0.01 µM

CN1Cc2c(nc(OC[C@@]34CCCN3C[C@H](F)C4)nc2N2CCCn3nc(-c4ccccn4)cc3C2)C[C@]12CCCc1ccccc12 [Compound 88, (7S)-2-[[(2R,8S)-2-fluoro-1,2,3,5,6,7-hexahydropyrrolizin-8-yl]methoxy]-6-methyl-4-[2-(2-pyridyl)-4,6,7,8-tetrahydropyrazolo[1,5-a][1,4]diazepin-5-yl]spiro[5,8-dihydropyrido[4,3-d]pyrimidine-7,1′-tetralin]]
IC50 [3]: > 100 µM | IC50 [2]: 0.01 to 0.1 µM

COc1cccc(-c2cc3n(n2)CCCN(c2nc(OC[C@@]45CCCN4C[C@H](F)C5)nc4c2CN(C)[C@@]2(CCCc5ccccc52)C4)C3)n1 [Compound 89, (7S)-2-[[(2R,8S)-2-fluoro-1,2,3,5,6,7-hexahydropyrrolizin-8-yl]methoxy]-4-[2-(6-methoxy-2-pyridyl)-4,6,7,8-tetrahydropyrazolo[1,5-a][1,4]diazepin-5-yl]-6-methyl-spiro[5,8-dihydropyrido[4,3-d]pyrimidine-7,1′-tetralin]]
IC50 [3]: > 100 µM | IC50 [2]: 0.1 to 1 µM

CN1Cc2c(nc(OC[C@@]34CCCN3C[C@H](F)C4)nc2N2CCn3cncc3C2)C[C@]12CCCc1ccccc12 [Compound 91, (7S)-4-(6,8-dihydro-5H-imidazo[1,5-a]pyrazin-7-yl)-2-[[(2R,8S)-2-fluoro-1,2,3,5,6,7-hexahydropyrrolizin-8-yl]methoxy]-6-methyl-spiro[5,8-dihydropyrido[4,3-d]pyrimidine-7,1′-tetralin]]
IC50 [3]: > 100 µM | IC50 [2]: 1 to 20 µM

CN1Cc2c(nc(OC[C@@]34CCCN3C[C@H](F)C4)nc2N2CCCn3nc(-c4cccc(O)n4)cc3C2)C[C@]12CCCc1ccccc12 [Compound 92, 6-[5-[(7S)-2-[[(2R,8S)-2-fluoro-1,2,3,5,6,7-hexahydropyrrolizin-8-yl]methoxy]-6-methyl-spiro[5,8-dihydropyrido[4,3-d]pyrimidine-7,1′-tetralin]-4-yl]-4,6,7,8-tetrahydropyrazolo[1,5-a][1,4]diazepin-2-yl]pyridin-2-ol]
IC50 [3]: > 100 µM | IC50 [2]: 0.1 to 1 µM

CN1Cc2c(nc(OC[C@@]34CCCN3C[C@H](F)C4)nc2N2CCCn3nc(-c4ccccn4)c(Cl)c3C2)C[C@]12CCCc1ccccc12 [Compound 93, (7S)-4-[3-chloro-2-(2-pyridyl)-4,6,7,8-tetrahydropyrazolo[1,5-a][1,4]diazepin-5-yl]-2-[[(2R,8S)-2-fluoro-1,2,3,5,6,7-hexahydropyrrolizin-8-yl]methoxy]-6-methyl-spiro[5,8-dihydropyrido[4,3-d]pyrimidine-7,1′-tetralin]]
IC50 [3]: 10 to 100 µM | IC50 [2]: < 0.01 µM

C[C@@H]1Cn2cncc2CN1c1nc(OC[C@@]23CCCN2C[C@H](F)C3)nc2c1CN(C)[C@@]1(CCCc3ccccc31)C2 [Compound 94, (7S)-2-[[(2R,8S)-2-fluoro-1,2,3,5,6,7-hexahydropyrrolizin-8-yl]methoxy]-6-methyl-4-[(6R)-6-methyl-6,8-dihydro-5H-imidazo[1,5-a]pyrazin-7-yl]spiro[5,8-dihydropyrido[4,3-d]pyrimidine-7,1′-tetralin]]
IC50 [3]: > 100 µM | IC50 [2]: 1 to 20 µM

CN(C)C(=O)c1nn2c(c1Cl)CN(c1nc(OCC3(CN4CCOCC4)CC3)nc3c1CN(C)[C@@]1(CCCc4ccccc41)C3)CCC2 [Compound 95, 3-chloro-N,N-dimethyl-5-[(7S)-6-methyl-2-[[1-(morpholinomethyl)cyclopropyl]methoxy]spiro[5,8-dihydropyrido[4,3-d]pyrimidine-7,1′-tetralin]-4-yl]-4,6,7,8-tetrahydropyrazolo[1,5-a][1,4]diazepine-2-carboxamide]
IC50 [3]: > 100 µM | IC50 [2]: < 0.01 µM

CN1Cc2c(nc(OC[C@@]34CCCN3C[C@H](F)C4)nc2N2CCCn3nc(CC#N)c(Cl)c3C2)C[C@]12CCCc1ccccc12 [Compound 98, 2-[3-chloro-5-[(7S)-2-[[(2R,8S)-2-fluoro-1,2,3,5,6,7-hexahydropyrrolizin-8-yl]methoxy]-6-methyl-spiro[5,8-dihydropyrido[4,3-d]pyrimidine-7,1′-tetralin]-4-yl]-4,6,7,8-tetrahydropyrazolo[1,5-a][1,4]diazepin-2-yl]acetonitrile]
IC50 [3]: > 100 µM | IC50 [2]: < 0.01 µM

CCN1Cc2c(nc(OC[C@@]34CCCN3C[C@H](F)C4)nc2N2CCCn3nc(C(=O)N(C)C)c(Cl)c3C2)C[C@]12CCCc1ccccc12 [Compound 100, 3-chloro-5-[(7S)-6-ethyl-2-[[(2R,8S)-2-fluoro-1,2,3,5,6,7-hexahydropyrrolizin-8-yl]methoxy]spiro[5,8-dihydropyrido[4,3-d]pyrimidine-7,1′-tetralin]-4-yl]-N,N-dimethyl-4,6,7,8-tetrahydropyrazolo[1,5-a][1,4]diazepine-2-carboxamide]
IC50 [3]: > 100 µM | IC50 [2]: 0.01 to 0.1 µM

[5-[(7S)-4′-chloro-2-[[(2R,8S)-2-fluoro-1,2,3,5,6,7-hexahydropyrrolizin-8-yl]methoxy]spiro[5,8-dihydropyrano[4,3-d]pyrimidine-7,1′-indane]-4-yl]-4,6,7,8-tetrahydropyrazolo[1,5-a][1,4]diazepin-2-yl]-pyrrolidin-1-yl-methanone [Compound 34]
IC50 [3]: > 100 µM | IC50 [2]: < 0.01 µM
